Source: PubChem BioAssay (NCI)
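Where inhibition never reached the appropriate level, the endpoint shown equals the highest concentration tested. Otherwise, values were interpolated linearly from a five-concentration, 48-hour dose response in 96-well plates. GI50 is the concentration that inhibits growth by half. TGI denotes the concentration required for complete inhibition of growth.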

Legend:
Experiment in all cases: inhibition of tumour cell growth, NCI panel, 48 h
OVCAR-4 ovarian = tested on: OVCAR-4 ovarian
SR leukemia = tested on: SR leukemia
ACHN renal = tested on: ACHN renal
HOP-62 NSCLC = tested on: HOP-62 NSCLC
UACC-62 melanoma = tested on: UACC-62 melanoma
SF-295 CNS = tested on: SF-295 CNS
T-47D breast = tested on: T-47D breast
CAKI-1 renal = tested on: CAKI-1 renal
OVCAR-8 ovarian = tested on: OVCAR-8 ovarian
SK-MEL-5 melanoma = tested on: SK-MEL-5 melanoma
SF-539 CNS = tested on: SF-539 CNS
K-562 leukemia = tested on: K-562 leukemia
SF-268 CNS = tested on: SF-268 CNS
SK-MEL-2 melanoma = tested on: SK-MEL-2 melanoma
CCRF-CEM leukemia = tested on: CCRF-CEM leukemia
OVCAR-3 ovarian = tested on: OVCAR-3 ovarian
IGROV1 ovarian = tested on: IGROV1 ovarian
NCI-H522 lung = tested on: NCI-H522 lung
A498 renal = tested on: A498 renal
NCI-H226 lung = tested on: NCI-H226 lung
UACC-257 melanoma = tested on: UACC-257 melanoma
EKVX NSCLC = tested on: EKVX NSCLC
SNB-19 CNS = tested on: SNB-19 CNS
HL-60(TB) leukemia = tested on: HL-60(TB) leukemia
TK-10 renal = tested on: TK-10 renal
HOP-92 NSCLC = tested on: HOP-92 NSCLC
NCI/ADR-RES ovarian = tested on: NCI/ADR-RES ovarian
HS 578T breast = tested on: HS 578T breast
HCC-2998 colon = tested on: HCC-2998 colon

COc1cnc2c(c1)C(=O)c1c-2n(CCCn2ccnc2)c(=O)c2cc(OC)c(OC)cc12
GI50 (OVCAR-4 ovarian): 1540 nM | TGI (OVCAR-4 ovarian): 3530 nM | GI50 (SR leukemia): 20.4 nM | TGI (SR leukemia): 6640 nM | GI50 (ACHN renal): 37.6 nM | TGI (ACHN renal): 1090 nM | GI50 (HOP-62 NSCLC): 41.9 nM | TGI (HOP-62 NSCLC): 1300 nM | GI50 (UACC-62 melanoma): 40.1 nM | TGI (UACC-62 melanoma): 1470 nM | GI50 (SF-295 CNS): 38.1 nM | TGI (SF-295 CNS): 1410 nM | GI50 (T-47D breast): 41.1 nM | TGI (T-47D breast): 1900 nM | GI50 (CAKI-1 renal): 39.1 nM | TGI (CAKI-1 renal): 3410 nM | GI50 (OVCAR-8 ovarian): 419 nM | TGI (OVCAR-8 ovarian): 2950 nM | GI50 (SK-MEL-5 melanoma): 258 nM | TGI (SK-MEL-5 melanoma): 1480 nM | GI50 (SF-539 CNS): 52.7 nM | TGI (SF-539 CNS): 889 nM | GI50 (K-562 leukemia): 85.2 nM | TGI (K-562 leukemia): 5860 nM | GI50 (SF-268 CNS): 72.9 nM | TGI (SF-268 CNS): 14100 nM | GI50 (SK-MEL-2 melanoma): 17300 nM | TGI (SK-MEL-2 melanoma): 31500 nM | GI50 (CCRF-CEM leukemia): 35.3 nM | TGI (CCRF-CEM leukemia): 4470 nM | GI50 (OVCAR-3 ovarian): 594 nM | TGI (OVCAR-3 ovarian): 2010 nM | GI50 (IGROV1 ovarian): 1240 nM | TGI (IGROV1 ovarian): 6210 nM | GI50 (NCI-H522 lung): 80.3 nM | TGI (NCI-H522 lung): 1610 nM | GI50 (A498 renal): 9440 nM | TGI (A498 renal): 23300 nM | GI50 (NCI-H226 lung): 190 nM | TGI (NCI-H226 lung): 5000 nM | GI50 (UACC-257 melanoma): 627 nM | TGI (UACC-257 melanoma): 2780 nM | GI50 (EKVX NSCLC): 1680 nM | TGI (EKVX NSCLC): 7240 nM | GI50 (SNB-19 CNS): 68 nM | TGI (SNB-19 CNS): 13300 nM | GI50 (HL-60(TB) leukemia): 45 nM | TGI (HL-60(TB) leukemia): 3670 nM | GI50 (TK-10 renal): 2940 nM | TGI (TK-10 renal): 8090 nM | GI50 (HOP-92 NSCLC): 935 nM | TGI (HOP-92 NSCLC): 10800 nM | GI50 (NCI/ADR-RES ovarian): 361 nM | TGI (NCI/ADR-RES ovarian): 4410 nM | GI50 (HS 578T breast): 4770 nM | TGI (HS 578T breast): 17500 nM | GI50 (HCC-2998 colon): 899 nM | TGI (HCC-2998 colon): 3060 nM
